Experimental data as given in article PMC12635268, “Novel antimicrobial peptides and peptide-microbiome crosstalk in Appalachian salamander skin” (NPJ Biofilms and Microbiomes, 2025).
Like-named read-outs stand apart in the source and are kept apart here. Ends that are not written are not given here.

Experiments:
E. faecium ATCC 19434 = assay: microbe, parasite or virus in culture
Method in brief: (§1)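 Broth microdilution MIC in cation-adjusted Mueller-Hinton broth, final inoculum 1 × 10⁵ CFU/mL. Peptides in 0.02% TFA + 0.04% BSA, 2-fold series 0.25 to 128 μg/mL, duplicate, 37 °C for 20 h without agitation. Growth imaged; MIC read visually per CLSI.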

[1] = system: K. pneumoniae ATCC 700603; assay: microbe, parasite or virus in culture; conditions: K. pneumoniae 700603; Week 2 (12/14/2023)
Method in brief: as §1

E. coli ATCC 43888 = assay: microbe, parasite or virus in culture
Method in brief: as §1

A. baumannii ATCC 17978 = assay: microbe, parasite or virus in culture
Method in brief: as §1

S. aureus ATCC 43300 = assay: microbe, parasite or virus in culture; conditions: S. aureus 43300; Week 2 (12/14/2023)
Method in brief: as §1

E. cloacae ATCC 13047 = assay: microbe, parasite or virus in culture
Method in brief: as §1

P. aeruginosa ATCC 27853 = assay: microbe, parasite or virus in culture
Method in brief: as §1

E. cloacae ATCC 35549 = assay: microbe, parasite or virus in culture
Method in brief: as §1

P. aeruginosa MRSN 5519 = assay: microbe, parasite or virus in culture
Method in brief: as §1

S. aureus ATCC 25923 = assay: microbe, parasite or virus in culture
Method in brief: as §1

K. pneumoniae ATCC 13883 = assay: microbe, parasite or virus in culture
Method in brief: as §1

E. coli ATCC 35218 = assay: microbe, parasite or virus in culture; conditions: E. coli 35218; Week 2 (12/14/2023)
Method in brief: as §1

A. baumannii ATCC 19606 = assay: microbe, parasite or virus in culture
Method in brief: as §1

E. faecium ATCC 49224 = assay: microbe, parasite or virus in culture
Method in brief: as §1

A. baumannii 5075 = conditions: Week 2 (12/14/2023)
[2] = system: Batrachochytrium dendrobatidis Bd-GPL strain JEL404; conditions: for Bd inhibition score (percent inhibition), mean: slope of growth, positive = inhibition, negative = no inhibition
Experimental: Bd-peptide challenge assays were conducted with the crude peptides extracted from the salamander skin secretions and with the 20 synthesized peptides. We followed methods by Pereria et al.[49] to conduct assays with the crude peptides using Bd-GPL strain JEL404 at 1 × 10^6 zoospores/mL. Briefly, skin peptide samples were pooled together based on species-site-injection (Table 1). Skin peptides samples were serially diluted 2-fold in MilliQ (Ultrapure Type 1) water and assayed at a concentration of 2.35–75 μg/mL based on starting peptide concentration available. For synthesized peptides, we conducted assays from 15.6 to 500 μg/ml. In both assays, we quantified percent inhibition of each well using slope of growth[90] in which positive values indicate inhibition and negative values indicate no inhibition.

P. aeruginosa PA01 = assay: microbe, parasite or virus in culture; assay type: cell-based; conditions: P. aeruginosa 15692 (PAO1); Week 2 (12/14/2023)
Experimental: Antimicrobial susceptibility testing of the 20 synthesized peptides against 17 bacterial strains of clinical relevance in the ESKAPEE panel was conducted using minimum inhibitory concentration (MIC) assays following the broth microdilution method outlined by Parker et al.[91]. The ESKAPEE panel is comprised of fourteen American Type Culture Collection (ATCC) strains and three Multidrug Resistant Organism Repository and Surveillance Network (MRSN) bacterial strains. These strains represent at least one drug-susceptible strain and one drug-resistant strain for each bacterium to assess drug efficacy across various resistance mechanisms. This panel is comprised of the following bacterial species and strains: E. faecium (ATCC 19434, ATCC 49224), S. aureus (ATCC 25923, ATCC 43300), K. pneumoniae (ATCC 700603, ATCC 13883, MRSN 1320), A. baumannii (ATCC 17978, ATCC 19606, MRSN 959), P. aeruginosa (ATCC 15692, ATCC 27853, MRSN 5519), E. cloacae (ATCC 13047, ATCC 35549), and E. coli (ATCC 35218, ATCC 43888). Bacteria were grown in cation-adjusted Mueller-Hinton broth (CAMHB) to achieve a final inoculum of 1 × 10⁵ CFU/mL. CAMHB is selected for its batch-to-batch reproducibility, low levels of antimicrobial inhibitors, and ability to support the growth of most bacterial pathogens.
Briefly, lyophilized peptides were dissolved in 0.2% TFA + 0.4% BSA in water to 2.56 mg/mL, ultrasonicated for 20 min, diluted 10-fold into CAMHB, and then serially diluted 2-fold in 0.02% TFA + 0.04% BSA in CAMHB and assayed at a concentration of 0.25 to 128 μg/mL. Assays were set up using the Tecan Freedom EVO liquid handling robot and software (Tecan, Switzerland) with 50 μL of bacterial inoculum and 50 μL of peptide transferred into round-bottom 96-well microtiter plates. Each plate assay was performed in duplicate and incubated at 37 °C for 20 h without agitation. Bacterial growth was assessed using the BIOMIC V3 Image Analysis system (Giles Scientific, USA) and the MIC values were determined visually according to the Clinical and Laboratory Standards Institute (CLSI) guidelines.

P. aeruginosa PA01 (Si) = assay: microbe, parasite or virus in culture; assay type: cell-based
From the text: Supplement 41522_2025_837_MOESM13_ESM.xlsx, sheet "Table_S13_ESKAPEE-MIC" | column: Bacterial MIC (µg/mL)

[3] = parameters: method as in Biomatik (vendor); conditions: 1.0 mg peptide in 1.0 ml solvent; peptides synthesized by Biomatik; ref Biomatik (vendor); cited from earlier work
[4] = E. faecium 19434, Week 2 (12/14/2023)
[5] = E. coli 43888, Week 2 (12/14/2023)
[6] = A. baumannii 17978, Week 2 (12/14/2023)
[7] = E. cloacae 13047, Week 2 (12/14/2023)
[8] = P. aeruginosa 27853, Week 2 (12/14/2023)
[9] = E. cloacae 35549, Week 2 (12/14/2023)
[10] = P. aeruginosa 5519, Week 2 (12/14/2023)
[11] = S. aureus 25923, Week 2 (12/14/2023)
[12] = K. pneumoniae 13883, Week 2 (12/14/2023)
[13] = A. baumannii 19606, Week 2 (12/14/2023)
[14] = E. faecium 49224, Week 2 (12/14/2023)
[15] = synthesized peptide 15.625 μg/mL
[16] = synthesized peptide 31.25 μg/mL
[17] = P. aeruginosa PA01 (Si), not typical ESKAPEE strain, Week 2 (12/14/2023)
[18] = K. pneumoniae 4640, Week 2 (12/14/2023)

Substance | Bacterial MIC (E. faecium ATCC 19434; [4]) [µg/mL] | Bacterial MIC [1] [µg/mL] | Bacterial MIC (E. coli ATCC 43888; [5]) [µg/mL] | Bacterial MIC (A. baumannii ATCC 17978; [6]) [µg/mL] | Bacterial MIC (S. aureus ATCC 43300) [µg/mL] | Bacterial MIC (E. cloacae ATCC 13047; [7]) [µg/mL] | Bacterial MIC (P. aeruginosa ATCC 27853; [8]) [µg/mL] | Bacterial MIC (E. cloacae ATCC 35549; [9]) [µg/mL] | Bacterial MIC (P. aeruginosa MRSN 5519; [10]) [µg/mL] | Bacterial MIC (S. aureus ATCC 25923; [11]) [µg/mL] | Bacterial MIC (K. pneumoniae ATCC 13883; [12]) [µg/mL] | Bacterial MIC (E. coli ATCC 35218) [µg/mL] | Bacterial MIC (A. baumannii ATCC 19606; [13]) [µg/mL] | Bacterial MIC (E. faecium ATCC 49224; [14]) [µg/mL] | Bacterial MIC (A. baumannii 5075) [µg/mL] | Bd inhibition score (percent inhibition), mean [2, 15] [%] | Bd inhibition score (percent inhibition), mean [2, 16] [%] | Bd inhibition score (percent inhibition), mean ([2]; synthesized peptide 62.5 μg/mL) [%] | Bacterial MIC (P. aeruginosa PA01) [µg/mL] | Suggest solvent (solubility) [3] | other results
RMIRRPPGFTPFR [PrAd-Eb10] | >128.000 | >128.000 | >128.000 | >128.000 | >128.000 | >128.000 | >128.000 | >128.000 | >128.000 | >128.000 | >128.000 | >128.000 | >128.000 | >128.000 | >128.000 | -10.4305 | -6.071 | -6.0656 | >128.000 | 1.0mg peptide soluble in 1.0ml H2O | Bd inhibition score (percent inhibition), mean ([2]; synthesized peptide 125 μg/mL): -13.7553%; Bd inhibition score (percent inhibition), mean ([2]; synthesized peptide 250 μg/mL): -14.8924%; Bd inhibition score (percent inhibition), mean ([2]; synthesized peptide 500 μg/mL): -12.1229%; Bacterial MIC (P. aeruginosa PA01 (Si); [17]): >128.000 µg/mL; Bacterial MIC (K. pneumoniae 4640; [18]): >128.000 µg/mL
SGLRGSL [PrMb-Eb19] |  | >128.000 |  |  | >128.000 |  |  |  |  |  |  | >128.000 |  |  | >128.000 |  |  | -38.0157 | >128.000 | 1.0mg peptide soluble in 1.0ml H2O | Bacterial MIC (E. faecium ATCC 19434; ATCC 19434, 20 h): >128.000 µg/mL; Bacterial MIC (E. coli ATCC 43888; ATCC 43888, 20 h): >128.000 µg/mL; Bacterial MIC (A. baumannii ATCC 17978; ATCC 17978, 20 h): >128.000 µg/mL; Bacterial MIC (E. cloacae ATCC 13047; ATCC 13047, 20 h): >128.000 µg/mL; Bacterial MIC (P. aeruginosa ATCC 27853; ATCC 27853, 20 h): >128.000 µg/mL; Bacterial MIC (E. cloacae ATCC 35549; ATCC 35549, 20 h): >128.000 µg/mL; Bacterial MIC (P. aeruginosa MRSN 5519; MRSN 5519, 20 h): >128.000 µg/mL; Bacterial MIC (S. aureus ATCC 25923; ATCC 25923, 20 h): >128.000 µg/mL; Bacterial MIC (K. pneumoniae ATCC 13883; ATCC 13883, 20 h): >128.000 µg/mL; Bacterial MIC (A. baumannii ATCC 19606; ATCC 19606, 20 h): >128.000 µg/mL; Bacterial MIC (E. faecium ATCC 49224; ATCC 49224, 20 h): >128.000 µg/mL; Bacterial MIC (P. aeruginosa PA01 (Si); Si): >128.000 µg/mL; Bacterial MIC (K. pneumoniae 4640; 4640, 20 h): >128.000 µg/mL
EPVPPGFTPFR [PrAd-Eb13] | >128.000 | >128.000 | >128.000 | >128.000 | >128.000 | >128.000 | >128.000 | >128.000 | >128.000 | >128.000 | >128.000 | >128.000 | >128.000 | >128.000 | >128.000 | -15.8993 | -14.7717 | -15.0589 | >128.000 | 1.0mg peptide soluble in 1.0ml H2O | Bd inhibition score (percent inhibition), mean ([2]; synthesized peptide 125 μg/mL): -17.1018%; Bd inhibition score (percent inhibition), mean ([2]; synthesized peptide 250 μg/mL): -17.5569%; Bd inhibition score (percent inhibition), mean ([2]; synthesized peptide 500 μg/mL): -12.696%; Bacterial MIC (P. aeruginosa PA01 (Si); [17]): >128.000 µg/mL; Bacterial MIC (K. pneumoniae 4640; [18]): >128.000 µg/mL
FPRPPGFTPFR [PrAd-Eb12] | >128.000 | >128.000 | >128.000 | >128.000 | >128.000 | >128.000 | >128.000 | >128.000 | >128.000 | >128.000 | >128.000 | >128.000 | >128.000 | >128.000 | >128.000 | -2.358 | 4.727 | 5.096 | >128.000 | 1.0mg peptide soluble in 1.0ml H2O | Bd inhibition score (percent inhibition), mean ([2]; synthesized peptide 125 μg/mL): 3.64%; Bd inhibition score (percent inhibition), mean ([2]; synthesized peptide 250 μg/mL): 0.8166%; Bd inhibition score (percent inhibition), mean ([2]; synthesized peptide 500 μg/mL): 9.489%; mild Bd inhibition, average across concentrations ([2]; synthesized peptide, concentrations down to 31.25 μg/mL): 1–9.5%; Bacterial MIC (P. aeruginosa PA01 (Si); [17]): >128.000 µg/mL; Bacterial MIC (K. pneumoniae 4640; [18]): >128.000 µg/mL
